From patent US10285989B2, “Pyrimidinone amide compounds as PDE2 inhibitors” (Merck Sharp & Dohme Corp., priority 2015, dated 2019) come the findings set out here.

human PDE2A1, sequence (O00408 other isoform, or with tags, fused parts or gaps): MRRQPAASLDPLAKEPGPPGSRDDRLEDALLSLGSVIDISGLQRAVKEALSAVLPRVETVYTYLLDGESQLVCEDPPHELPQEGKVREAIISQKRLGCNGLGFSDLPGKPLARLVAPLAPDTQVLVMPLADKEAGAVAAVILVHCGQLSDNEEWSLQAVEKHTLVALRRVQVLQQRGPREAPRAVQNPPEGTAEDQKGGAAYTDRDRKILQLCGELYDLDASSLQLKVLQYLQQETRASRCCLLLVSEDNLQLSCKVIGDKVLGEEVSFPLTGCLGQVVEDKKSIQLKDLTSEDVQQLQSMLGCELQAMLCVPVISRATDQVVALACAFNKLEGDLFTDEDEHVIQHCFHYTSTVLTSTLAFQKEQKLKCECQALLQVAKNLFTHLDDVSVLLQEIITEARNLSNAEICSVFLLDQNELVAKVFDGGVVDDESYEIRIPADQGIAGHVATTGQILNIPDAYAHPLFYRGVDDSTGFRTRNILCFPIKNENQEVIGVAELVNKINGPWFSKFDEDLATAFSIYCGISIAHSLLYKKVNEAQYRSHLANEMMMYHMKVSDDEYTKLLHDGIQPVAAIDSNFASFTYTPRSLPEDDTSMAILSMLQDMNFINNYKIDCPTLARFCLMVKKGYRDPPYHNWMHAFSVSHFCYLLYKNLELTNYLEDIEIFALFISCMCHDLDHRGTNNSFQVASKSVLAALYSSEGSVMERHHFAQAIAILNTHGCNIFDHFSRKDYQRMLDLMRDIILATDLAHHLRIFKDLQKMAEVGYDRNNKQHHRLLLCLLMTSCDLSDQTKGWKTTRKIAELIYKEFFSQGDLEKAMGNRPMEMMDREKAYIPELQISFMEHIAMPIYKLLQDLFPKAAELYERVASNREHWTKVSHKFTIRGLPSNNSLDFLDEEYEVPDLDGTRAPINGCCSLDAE

The first experiment addresses human PDE2A1 (Homo sapiens (Human), UniProt O00408). In words: PDE2 IMAP FP inhibition assay, human PDE2A1 (selectivity panel format). Particulars: @ 3 μM; Lab B; read-out: Human PDE2 % inhibition at a given concentration - Lab B. Type of experiment: biochemical. On the procedure:
Selectivity for PDE2, as compared to other PDE families, was assessed using the IMAP® technology. Human PDE10A2 enzyme was prepared from cytosolic fractions of transiently transfected HEK cells.
A Labcyte POD 810 (Labcyte, Sunnyvale, Calif.) was used to dispense 200 nL from each well of the titration plate to make eleven copies of the assay plate for each titration, one copy for each PDE enzyme. A solution of each enzyme (dilution from aliquots, sufficient to produce 20% substrate conversion) and a separate solution of FAM-labeled cAMP or FAM-labeled cGMP from Molecular Devices (Sunnyvale, Calif., product # R7506 or cGMP#R7508), at a final concentration of 50 nM were made in the assay buffer (10 mM Tris HCl, pH 7.2, 10 mM MgCl2, 0.05% NaN3 0.01% Tween-20, and 1 mM DTT). Note that the substrate for PDE2 is 50 nM FAM cAMP containing 1000 nM of cGMP. The enzyme and the substrate were then added to the assay plates in two consecutive additions of 10 μL and then shaken to mix. The reaction was allowed to proceed at room temperature for 60 minutes. A binding solution was then made from the kit components, comprised of 80% Solution A, 20% Solution B and binding reagent at a volume of 1/600 the total binding solution. The enzymatic reaction was stopped by addition of 60 μL of the binding solution to each well of the assay plate. The plates were sealed and shaken for 10 seconds. The plates were incubated at room temperature for one hour, then the parallel and perpendicular fluorescence was measured using a Tecan Genios Pro plate reader (Tecan, Switzerland). […] The intrinsic PDE2 inhibitory activity of a compound which may be used in accordance with the present invention may be determined by these assays. […]
Regarding `CN(C)c1nc(C(=O)NC(c2ccc(SC(F)(F)F)c(F)c2)C2(C)CC2)cc(=O)[nH]1` (single isomer, unassigned) [Example 119, (S)- or (R)-2-(dimethylamino)-N-[{3-fluoro-4-[(trifluoromethyl)sulfanyl]phenyl}(1-methylcyclopropyl)methyl]-6-oxo-1,6-dihydropyrimidine-4-carboxamide], the inhibition at 3 µM was determined as 49%. The same measure, in the same setting: with `CC(NC(=O)c1cc(=O)[nH]c(N(C)C)n1)c1ccc(C2(C(F)(F)F)CC2)cc1` (single isomer, unassigned) [Example 125, (S)- or (R)-2-(dimethylamino)-6-oxo-N-[1-{4-[1-(trifluoromethyl)cyclopropyl]phenyl}ethyl]-1,6-dihydropyrimidine-4-carboxamide] the figure was 38%.

The experiment is the same for the next values; noted with them: Lab A; read-out: Human PDE2 Ki (nM) - Lab A.
Take `CC(C)[C@@H](NC(=O)c1cc(=O)[nH]c(N2CC[C@@H](O)C2)n1)c1ccc(OC(F)(F)F)c(F)c1` [Example 166, N-{(1R)-1-[3-fluoro-4-(trifluoromethoxy)phenyl]-2-methylpropyl}-2-[(3R)-3-hydroxypyrrolidin-1-yl]-6-oxo-1,6-dihydropyrimidine-4-carboxamide]: the Ki came out at 1.3 nM.

Still in this experiment, the particulars now being: Lab B; read-out: Human PDE2 Ki (nM) - Lab B.
In the case of `CC[C@@H](NC(=O)c1cc(=O)[nH]c(N(C)C)n1)c1ccc(C(F)F)c(F)c1` [Example 68, N-{(1R)-1-[4-(difluoromethyl)-3-fluorophenyl]propyl}-2-(dimethylamino)-6-oxo-1,6-dihydropyrimidine-4-carboxamide], the Ki stood at 12 nM. On the same count and under the same terms, with `CN(C)c1nc(C(=O)NC2(c3ccc(OC(C)(C)C)cc3)CC2)cc(=O)[nH]1` [Example 50, N-[1-(4-tert-butoxyphenyl)cyclopropyl]-2-(dimethylamino)-6-oxo-1,6-dihydropyrimidine-4-carboxamide] the figure was 27 nM; with `CN(C)c1nc(C(=O)NC2(c3ccc(C(F)(F)F)cc3)CCCC2)cc(=O)[nH]1` [Example 202, 2-(dimethylamino)-6-oxo-N-{1-[4-(trifluoromethyl)phenyl]cyclopentyl}-1,6-dihydro-pyrimidine-4-carboxamide], 5.4 nM; with `CN(C)c1nc(C(=O)NC(c2ccc(C(F)(F)F)cc2)C(F)(F)F)cc(=O)[nH]1` (stereo not drawn) [Example 207, 2-(dimethylamino)-6-oxo-N-{2,2,2-trifluoro-1-[4-(trifluoromethyl)phenyl]ethyl}-1,6-dihydropyrimidine-4-carboxamide], 2.9 nM. Turning to `CN(C)c1nc(C(=O)NC(C)(C)c2ccc(C(F)F)c(F)c2)cc(=O)[nH]1` [Example 69, N-{1-[4-(difluoromethyl)-3-fluorophenyl]-1-methylethyl}-2-(dimethylamino)-6-oxo-1,6-dihydropyrimidine-4-carboxamide], the Ki is 10 nM.

Regarding `CC(=O)C(NC(=O)c1cc(=O)[nH]c(N(C)C)n1)c1ccc(C(F)(F)F)cc1` (stereo not drawn) [Example 197, 2-(dimethylamino)-6-oxo-N-{2-oxo-1-[4-(trifluoromethyl)phenyl]propyl}-1,6-dihydropyrimidine-4-carboxamide], the Ki turned out to be 3.6 nM.

On to `CN(C)c1nc(C(=O)N[C@@H](c2ccc(OC(F)(F)F)c(F)c2)C(C)(C)O)cc(=O)[nH]1` [Example 208, 2-(dimethylamino)-N-{(1S)-1-[3-fluoro-4-(trifluoromethoxy)phenyl]-2-hydroxy-2-methylpropyl}-6-oxo-1,6-dihydropyrimidine-4-carboxamide], for which the Ki was 0.12 nM. As for `CN(C)c1nc(C(=O)N[C@](C)(CO)c2ccc(C(F)(F)F)cc2Cl)cc(=O)[nH]1` [Example 200, N-{(1S)-1-[2-chloro-4-(trifluoromethyl)phenyl]-2-hydroxy-1-methylethyl}-2-(dimethylamino)-6-oxo-1,6-dihydropyrimidine-4-carboxamide], the Ki turned out to be 0.52 nM.

Take `CC(NC(=O)c1cc(=O)[nH]c(N(C)C)n1)c1ccc(C2(C(F)(F)F)CC2)cc1` (single isomer, unassigned) [Example 126, (R)- or (S)-2-(dimethylamino)-6-oxo-N-[1-{4-[1-(trifluoromethyl)cyclopropyl]phenyl}ethyl]-1,6-dihydropyrimidine-4-carboxamide]: the Ki was found to be 16 nM.

Take `CN(C)c1nc(C(=O)N[C@@H](c2ccc(OC(F)(F)F)cc2Cl)C(C)(C)O)cc(=O)[nH]1` [Example 210, N-{(1S)-1-[2-chloro-4-(trifluoromethoxy)phenyl]-2-hydroxy-2-methylpropyl}-2-(dimethylamino)-6-oxo-1,6-dihydropyrimidine-4-carboxamide]: the Ki came to 0.54 nM. The same measure, in the same setting: with `CC[C@@H](NC(=O)c1cc(=O)[nH]c(N(C)C)n1)c1ccc(C(F)F)cc1` [Example 67, N-{(1R)-1-[4-(difluoromethyl)phenyl]propyl}-2-(dimethylamino)-6-oxo-1,6-dihydropyrimidine-4-carboxamide] the figure was 6.9 nM; with `COC(=O)C(NC(=O)c1cc(=O)[nH]c(N(C)C)n1)c1ccc(C(F)(F)F)cc1` (stereo not drawn) [Example 205, methyl ({[2-(dimethylamino)-6-oxo-1,6-dihydropyrimidin-4-yl]carbonyl}amino)[4-(trifluoromethyl)phenyl]acetate], 49 nM; with `CN(C)c1nc(C(=O)NC2(c3ccc(OC(F)(F)F)cc3)CCC2)cc(=O)[nH]1` [Example 201, 2-(dimethylamino)-6-oxo-N-{1-[4-(trifluoromethoxy)phenyl]cyclobutyl}-1,6-dihydropyrimidine-4-carboxamide], 18 nM. The same measure, in the same setting: with `CN(C)c1nc(C(=O)NC2(c3ccc(OC(F)F)cc3)CC2)cc(=O)[nH]1` [Example 52, N-{1-[4-(difluoromethoxy)phenyl]cyclopropyl}-2-(dimethylamino)-6-oxo-1,6-dihydropyrimidine-4-carboxamide] the figure was 11 nM; with `CC(NC(=O)c1cc(=O)[nH]c(N(C)C)n1)c1ccc(C(C)(C)C(F)(F)F)cc1` (single isomer, unassigned) [Example 122, (R)- or (S)-2-(dimethylamino)-6-oxo-N-{1-[4-(2,2,2-trifluoro-1,1-dimethylethyl)phenyl]ethyl}-1,6-dihydropyrimidine-4-carboxamide], 34 nM; with `CN(C)c1nc(C(=O)N[C@@H](c2ccc(OC(F)F)c(F)c2)C2CC2)cc(=O)[nH]1` [Example 53, N-{(R)-cyclopropyl[4-(difluoromethoxy)-3-fluorophenyl]methyl}-2-(dimethylamino)-6-oxo-1,6-dihydropyrimidine-4-carboxamide], 4 nM. On the same count and under the same terms, with `CN(C)c1nc(C(=O)N[C@H]2COCc3cc(C(F)(F)F)ccc32)cc(=O)[nH]1` [Example 198, 2-(dimethylamino)-6-oxo-N-[(4R)-7-(trifluoromethyl)-3,4-dihydro-1H-isochromen-4-yl]-1,6-dihydropyrimidine-4-carboxamide] the figure was 863 nM; with `CN(C)c1nc(C(=O)NC(CO)c2ccc(C(F)(F)F)cc2)cc(=O)[nH]1` (stereo not drawn) [Example 206, 2-(dimethylamino)-N-{2-hydroxy-1-[4-(trifluoromethyl)phenyl]ethyl}-6-oxo-1,6-dihydropyrimidine-4-carboxamide], 7.2 nM. On to `CN(C)c1nc(C(=O)N[C@H](c2ccc(C(F)(F)F)cc2)C(C)(C)C)cc(=O)[nH]1` [Example 72, 2-(dimethylamino)-N-{(1S)-2,2-dimethyl-1-[4-(trifluoromethyl)phenyl]propyl}-6-oxo-1,6-dihydropyrimidine-4-carboxamide], for which the Ki stood at 17 nM.

In the case of `CN(C)c1nc(C(=O)NC(c2ccncc2)c2ccc(C(F)(F)F)cc2)cc(=O)[nH]1` (stereo not drawn) [Example 196, 2-(dimethylamino)-6-oxo-N-{pyridin-4-yl[4-(trifluoromethyl)phenyl]methyl}-1,6-dihydropyrimidine-4-carboxamide], the inhibition constant Ki stood at 91 nM. On the same count and under the same terms, with `CN(C)c1nc(C(=O)NC2(c3ccc(CC(F)(F)F)cc3)CC2)cc(=O)[nH]1` [Example 51, 2-(dimethylamino)-6-oxo-N-{1-[4-(2,2,2-trifluoroethyl)phenyl]cyclopropyl}-1,6-dihydropyrimidine-4-carboxamide] the figure was 9.7 nM; with `CN(C)c1nc(C(=O)NC(c2ccccc2)c2ccc(C(F)(F)F)cc2)cc(=O)[nH]1` (stereo not drawn) [Example 195, 2-(dimethylamino)-6-oxo-N-{phenyl[4-(trifluoromethyl)phenyl]methyl}-1,6-dihydropyrimidine-4-carboxamide], 81 nM; with `CC(C)[C@@H](NC(=O)c1cc(=O)[nH]c(O)n1)c1ccc(SC(F)(F)F)cc1` [Example 20, (R)-2-hydroxy-N-(2-methyl-1-(4-((trifluoromethyl)thio)phenyl)propyl)-6-oxo-1,6-dihydropyrimidine-4-carboxamide], 329 nM. Same read-out and setting: with `CN(C)c1nc(C(=O)N[C@H]2CCCc3cc(C(F)(F)F)ccc32)cc(=O)[nH]1` [Example 204, 2-(dimethylamino)-6-oxo-N-[(1S)-6-(trifluoromethyl)-1,2,3,4-tetrahydronaphthalen-1-yl]-1,6-dihydropyrimidine-4-carboxamide] the figure was 129 nM.

Usually Ki stands for the equilibrium dissociation constant of an inhibitor or competing ligand from its target.
